In US4444754A, “Derivatives of clavulanic acid, a process for their preparation and their use” (Beecham Group Limited, priority 1978, dated 1984):
In brackets after ≈: the same amount, converted by molar mass. Read-outs that look alike come from different tables or passages of the source.

Legend:
[1] = tested on: Staphylococcus aureus Smith; test: in-vivo anti-bacterial activity in mice with intraperitoneal Staphylococcus aureus Smith infection; conditions: intraperitoneal S. aureus Smith; for ED50: Staphylococcus aureus, sc, sub-cutaneous dosing 1 and 5 hours post infection
Description: (§1) When tested in mice suffering from an intraperitoneal infection of Staphylococcus aureus Smith, the following results where obtained with sub-cutaneous dosing 1 and 5 hours post infection: […]

Prot. mirabilis C977 = test: MIC in DST agar containing 5% blood; assay type: cell-based; conditions: Proteus mirabilis
Description: (§2) The following MIC values (μg/ml) for the compound of Example 2 were obtained in DST agar containing 5% blood: […]

Staph. aureus 1517 = test: MIC in DST agar containing 5% blood; assay type: cell-based; conditions: Staphylococcus aureus
Description: as §2

Kleb. aerogenes A = test: MIC in DST agar containing 5% blood; assay type: cell-based; conditions: Klebsiella aerogenes
Description: as §2

E. coli JT39 (R+) = test: MIC in DST agar containing 5% blood; assay type: cell-based; conditions: Escherichia coli
Description: as §2

Strep. pyogenes CN1O = test: MIC in DST agar containing 5% blood; assay type: cell-based; conditions: Streptococcus pyogenes
Description: as §2

E. coli 0111 = test: MIC in DST agar containing 5% blood; assay type: cell-based; conditions: Escherichia coli
Description: as §2

E. coli ESS = test: MIC in DST agar containing 5% blood; assay type: cell-based; conditions: Escherichia coli
Description: as §2

Staph. aureus Oxford = test: MIC in DST agar containing 5% blood; assay type: cell-based; conditions: Staphylococcus aureus
Description: as §2

Strep. faecalis I = test: MIC in DST agar containing 5% blood; assay type: cell-based; conditions: Enterococcus faecalis
Description: as §2

Staph. aureus Russell = test: MIC in DST agar containing 5% blood; assay type: cell-based; conditions: Staphylococcus aureus
Description: as §2

Strep. pneumoniae = test: MIC in DST agar containing 5% blood; assay type: cell-based; conditions: Streptococcus pneumoniae
Description: as §2

[2] = overt drug induced toxicity in infected mice at the therapeutic dose; assay type: in vivo; conditions: sub-cutaneous
Description: as §1

E. coli E96 (Rtem) = test: in-vivo test in mice infected intraperitoneally with E. coli E96 (Rtem), amoxycillin synergy; conditions: Escherichia coli, sc, read-out: CD50 of amoxycillin alone
Klebsiella aerogenes E70 = test: in vitro MIC of ampicillin with and without the compound (synergy); assay type: cell-based; conditions: without the compound of Example 2, read-out: in vitro MIC of ampicillin alone
[3] = read-out: CD50 (the source's name)

Compound `O=C(O)[C@H]1/C(=C/CO)O[C@@H]2CC(=O)N21` [Clavulanic acid sodium, reference compound] has an ED50 ([1]; range of results in various tests, read-out: CD50, range of results in various tests) of 12 to 27 mg/kg and an ED50 [1, 3] of 13 mg/kg.
Compound `O=C(O)[C@H]1/C(=C/CN2CCc3ccccc3C2)O[C@@H]2CC(=O)N21` [Example 2, 9-N-(1,2,3,4-Tetrahydroisoquinolyl)deoxyclavulanic acid] has an MIC (Prot. mirabilis C977) greater than 80 µg/mL, an MIC (Staph. aureus 1517) of 20 µg/mL (≈ 63.6 µM) and an MIC (Kleb. aerogenes A) of 20 µg/mL (≈ 63.6 µM). It also gave an MIC (E. coli JT39 (R+)) of 40 µg/mL (≈ 127 µM), an MIC (Strep. pyogenes CN1O) of no more than 1.25 µg/mL and an MIC (E. coli 0111) of 80 µg/mL (≈ 255 µM). For the same compound, the MIC (E. coli ESS) was 10 µg/mL (≈ 31.8 µM), the MIC (Staph. aureus Oxford) was no more than 1.25 µg/mL and the MIC (Strep. faecalis I) was 80 µg/mL (≈ 255 µM). For the same compound, the MIC (Staph. aureus Russell) was no more than 1.25 µg/mL, the MIC (Strep. pneumoniae) was no more than 1.25 µg/mL and the ED50 [1, 3] was 3.5 mg/kg. The anti-bacterial activity in-vivo ([1]; result in words) was “good anti-bacterial activity in-vivo” and the “overt drug induced toxicity” value [2] was “No overt drug induced toxicity was observed”.
`CC1(C)S[C@@H]2[C@H](NC(=O)[C@H](N)c3ccc(O)cc3)C(=O)N2[C@H]1C(=O)O` [amoxycillin] gave an ED50 (E. coli E96 (Rtem)) greater than 1000 mg/kg.
With `CC1(C)S[C@@H]2[C@H](NC(=O)[C@H](N)c3ccccc3)C(=O)N2[C@H]1C(=O)O` [ampicillin] the MIC (Klebsiella aerogenes E70) was 125 µg/mL.
